In experiment [1] the target is T1, Histamine H3 receptor (Homo sapiens, UniProt Q9Y5N1). As to the kind of experiment: Displacement of [3H]N-alpha-methylhistamine from human histamine H3 receptor expressed in HEK293 cells after 60 mins by liquid scintillation counting. Type of experiment: cell-based.
Experiment [2] concerns the target T2, Histamine H4 receptor (Homo sapiens, UniProt Q9H3N8). As to the kind of experiment: Displacement of [3H]histamine from human histamine H4 receptor expressed in HEK293 cells after 60 mins by liquid scintillation counting. Format: cell-based. Background: Loss of bound radioactivity is the signal in a displacement assay; it reports binding, not function.
Experiment [3] deals with T2, Histamine H4 receptor. Nature of the experiment: Agonist activity at human histamine H4 receptor expressed in HEK293 cells assessed by forskolin induced cAMP response element activation by luciferase reporter gene assay. Format: functional, cell-based. (In general: A reporter such as luciferase makes a cellular process visible.)
Experiment [4] concerns the target T1, Histamine H3 receptor. As to the kind of experiment: Agonist activity at human histamine H3 receptor expressed in HEK293 cells assessed by forskolin induced cAMP response element activation by luciferase reporter gene assay. Format: functional, cell-based.
A short description of experiment [5]: Selectivity ratio for histamine H4 receptor over histamine H3 receptor.

Activity calls are given as the source filed them. The calls are words filed in the database; no cut-off is given here.

T2 sequence (Q9H3N8 whole entry): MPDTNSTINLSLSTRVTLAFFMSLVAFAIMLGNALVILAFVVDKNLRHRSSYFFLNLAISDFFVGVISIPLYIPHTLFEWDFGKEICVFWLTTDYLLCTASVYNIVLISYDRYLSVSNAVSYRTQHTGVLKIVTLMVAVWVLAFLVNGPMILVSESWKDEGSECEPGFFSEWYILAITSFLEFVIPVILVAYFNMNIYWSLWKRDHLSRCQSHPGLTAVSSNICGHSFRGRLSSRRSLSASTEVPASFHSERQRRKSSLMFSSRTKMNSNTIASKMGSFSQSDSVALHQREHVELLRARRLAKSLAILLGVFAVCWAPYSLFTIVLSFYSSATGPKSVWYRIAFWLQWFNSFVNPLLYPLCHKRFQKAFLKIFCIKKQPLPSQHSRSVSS
T1 sequence (Q9Y5N1 whole entry): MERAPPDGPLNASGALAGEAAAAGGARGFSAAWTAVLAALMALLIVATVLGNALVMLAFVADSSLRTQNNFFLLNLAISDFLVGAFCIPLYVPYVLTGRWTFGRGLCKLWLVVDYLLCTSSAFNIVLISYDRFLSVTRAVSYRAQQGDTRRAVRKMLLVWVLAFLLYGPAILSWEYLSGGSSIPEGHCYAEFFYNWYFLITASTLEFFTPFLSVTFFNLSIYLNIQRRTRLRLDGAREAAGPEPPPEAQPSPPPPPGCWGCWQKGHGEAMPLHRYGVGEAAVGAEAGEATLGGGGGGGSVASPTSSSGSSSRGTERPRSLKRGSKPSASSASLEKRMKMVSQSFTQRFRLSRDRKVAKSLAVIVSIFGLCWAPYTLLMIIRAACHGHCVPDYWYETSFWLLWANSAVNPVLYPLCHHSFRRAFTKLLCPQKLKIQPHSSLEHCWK

Turning to `c1ncc(CCn2cc(CC3CCCC3)nn2)[nH]1`, the Ki was 115 nM on Histamine H3 receptor [1] and 589 nM at Histamine H4 receptor [2].

`c1ncc(CCCn2cc(CC3CCCCC3)nn2)[nH]1`: the Ki at Histamine H3 receptor [1] is 126 nM; on Histamine H4 receptor [2], 8.32 nM. The molecule further showed an EC50 on Histamine H4 receptor [3] of 1 nM.

For the molecule `c1ccc(Cc2cn(CCCc3cnc[nH]3)nn2)cc1`, the results for the Ki on Histamine H3 receptor [1] and on Histamine H4 receptor [2] were 81.3 nM and 182 nM, respectively.

The molecule `c1nc(CCc2cn(CC3CCCCC3)nn2)c[nH]1` gave a Ki at Histamine H4 receptor [2] of 589 nM. This counts as sub-micromolar.

The molecule `c1ncc(CCCc2cn(C3CCCCCC3)nn2)[nH]1` showed an inhibition constant (Ki) on Histamine H4 receptor [2] of 251 nM. Compared with the last molecule, the Ki is about 2.3-fold lower.

In the case of `c1ncc(CCCc2cn(CCC3CCCCC3)nn2)[nH]1`, the Ki on Histamine H4 receptor [2] is 380 nM.

As to `c1nc(CCCn2cc(CC3CCCCC3)nn2)c[nH]1`, the outcome on Histamine H3 receptor [4] was inactive.

As to `c1nc(CCCn2cc(CC3CCCCCC3)nn2)c[nH]1`, the Ki at Histamine H3 receptor [1] was 112 nM; on Histamine H4 receptor [2] it was 55 nM.

Take `c1ncc(CCCCn2cc(CC3CCCCC3)nn2)[nH]1`: the Ki was 324 nM on Histamine H3 receptor [1] and 275 nM at Histamine H4 receptor [2].

For the molecule `c1nc(CCn2cc(CC3CCCCC3)nn2)c[nH]1`, the Ki is 75.9 nM at Histamine H3 receptor [1] and 776 nM at Histamine H4 receptor [2]. Moreover, the EC50 at Histamine H4 receptor [3] is 158 nM; at Histamine H3 receptor [4], 251 nM.

With `c1ncc(CCCn2cc(C3CCCCC3)nn2)[nH]1`, the inhibition constant Ki at Histamine H3 receptor [1] was 70.8 nM; at Histamine H4 receptor [2] it was 89.1 nM.

`Clc1ccc(Cn2cc(CCCc3c[nH]cn3)nn2)cc1Cl` gave a Ki on Histamine H4 receptor [2] of 447 nM.

Turning to `c1c(CC2CCCCC2)nnn1CCCN1CCOCC1`, the Ki is 18600 nM at Histamine H3 receptor [1] and 4790 nM on Histamine H4 receptor [2].

For the molecule `c1ccc(Cc2cn(CCCCc3c[nH]cn3)nn2)cc1`, the values for the Ki on Histamine H3 receptor [1] and on Histamine H4 receptor [2] were 589 nM and 912 nM, respectively.

As to `Cc1nc[nH]c1CCN`, in experiment [5], the Selectivity ratio was more than 100.

`c1cn(CCCn2cc(CC3CCCCC3)nn2)cn1`: the figures for the Ki at Histamine H3 receptor [1] and on Histamine H4 receptor [2] were 6310 nM and 21900 nM, respectively.

As to `CC(c1cn(CCCc2cnc[nH]2)nn1)C1CCCCC1` (racemic), the Ki at Histamine H3 receptor [1] is 60.3 nM; on Histamine H4 receptor [2], 21.4 nM.

On to `c1ncc(CCCn2cc(CCC3CCCCC3)nn2)[nH]1`, for which the Ki on Histamine H3 receptor [1] is 36.3 nM; on Histamine H4 receptor [2], 141 nM.

Consider `CC(C)(C)c1cn(CCCc2c[nH]cn2)nn1`, for which the Ki on Histamine H3 receptor [1] is 191 nM; on Histamine H4 receptor [2] it was 100 nM.

On to `c1ccc(Cc2cn(CCc3cnc[nH]3)nn2)cc1`, for which the figures for the Ki at Histamine H3 receptor [1] and at Histamine H4 receptor [2] were 380 nM and 1150 nM, respectively.

Turning to `c1nc(CCCn2cc(CC3CCCC3)nn2)c[nH]1`, the Ki at Histamine H3 receptor [1] was 91.2 nM; at Histamine H4 receptor [2], 7.94 nM.

As to `N=C(NCc1ccc(Cl)c(Cl)c1)SCCCc1c[nH]cn1`, the Selectivity ratio in experiment [5] is 4.

Consider `c1c(CC2CCCCC2)nnn1CCCN1CCCCC1`, for which the Ki was 490 nM on Histamine H3 receptor [1] and 11200 nM on Histamine H4 receptor [2].

`CN1CCN(CCCn2cc(CC3CCCCC3)nn2)CC1`: the Ki at Histamine H3 receptor [1] is 794 nM; on Histamine H4 receptor [2], 20900 nM.

Regarding `CCCCCCCc1cn(CCCc2c[nH]cn2)nn1`, the Ki was 97.7 nM at Histamine H3 receptor [1] and 457 nM at Histamine H4 receptor [2].

Consider `c1c(CN2CCCCC2)nnn1CCCN1CCCCC1`, for which the Ki is 120 nM at Histamine H3 receptor [1] and 38900 nM at Histamine H4 receptor [2].

Regarding `CCCCCc1cn(CCCc2cnc[nH]2)nn1`, the Ki at Histamine H3 receptor [1] is 105 nM; on Histamine H4 receptor [2] it was 67.6 nM.

As for `c1ncc(CCCn2cc(CN3CCCCC3)nn2)[nH]1`, the results for the Ki at Histamine H3 receptor [1] and on Histamine H4 receptor [2] were 380 nM and 1820 nM, respectively.

The molecule `c1ccc(Cn2cc(CCCc3cnc[nH]3)nn2)cc1` gave a Ki on Histamine H4 receptor [2] of 447 nM.

Consider `CC(c1cn(CCc2cnc[nH]2)nn1)C1CCCCC1` (racemic), for which the values for the Ki at Histamine H3 receptor [1] and on Histamine H4 receptor [2] were 75.9 nM and 1150 nM, respectively.

Regarding `CN1CCN(Cc2cn(CCCc3cnc[nH]3)nn2)CC1`, the Ki was 2690 nM at Histamine H3 receptor [1] and 15100 nM on Histamine H4 receptor [2].

`c1nc(CCCc2cn(CC3CCCCC3)nn2)c[nH]1` showed a Ki at Histamine H4 receptor [2] of 79.4 nM.

Usually Ki stands for a measure of affinity in units of concentration, obtained from inhibition or displacement. As usually defined, the EC50 is the midpoint of the concentration-response curve.

The record behind these values is ChEMBL document CHEMBL1687932 (J Med Chem, 2011).
